Assay results as given in ChEMBL document CHEMBL3132848, “Glycosidase inhibition by novel guanidinium and urea iminosugar derivatives” (Medchemcomm, 2013).

Tests used:
Alpha-galactosidase = Alpha-galactosidase (Coffea arabica, UniProt Q42656); assay: Inhibition of alpha-galactosidase in green coffee bean after 30 mins by spectrophotometric analysis
[1] = Inhibition of naringinase in Penicillium decumbens after 30 mins by spectrophotometric analysis
[2] = Inhibition of beta-glucosidase in almond after 30 mins by spectrophotometric analysis; design: species or system Prunus dulcis
[3] = Inhibition of alpha-glucosidase in yeast after 30 mins by spectrophotometric analysis; design: species or system Saccharomyces cerevisiae
Beta-galactosidase = molecular target: T1, Beta-galactosidase (Bos taurus, UniProt Q58D55); assay: Inhibition of beta-galactosidase in bovine liver after 30 mins by spectrophotometric analysis
T1 sequence (Q58D55 whole entry): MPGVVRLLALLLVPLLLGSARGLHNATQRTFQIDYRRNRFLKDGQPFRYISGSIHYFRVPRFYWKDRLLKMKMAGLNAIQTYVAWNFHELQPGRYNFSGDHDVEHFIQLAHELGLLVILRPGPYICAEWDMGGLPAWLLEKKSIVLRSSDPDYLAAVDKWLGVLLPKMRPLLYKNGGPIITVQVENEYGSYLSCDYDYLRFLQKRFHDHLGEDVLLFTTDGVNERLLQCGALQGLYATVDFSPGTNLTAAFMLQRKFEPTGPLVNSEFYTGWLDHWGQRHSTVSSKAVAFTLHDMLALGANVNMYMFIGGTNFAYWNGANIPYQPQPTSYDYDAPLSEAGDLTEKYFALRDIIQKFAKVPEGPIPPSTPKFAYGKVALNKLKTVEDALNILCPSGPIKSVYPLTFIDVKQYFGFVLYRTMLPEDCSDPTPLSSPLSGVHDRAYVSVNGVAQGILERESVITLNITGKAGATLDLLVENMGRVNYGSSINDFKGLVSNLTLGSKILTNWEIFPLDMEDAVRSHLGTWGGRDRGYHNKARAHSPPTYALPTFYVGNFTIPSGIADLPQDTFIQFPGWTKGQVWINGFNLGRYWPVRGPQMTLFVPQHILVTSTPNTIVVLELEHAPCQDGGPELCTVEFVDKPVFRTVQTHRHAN

[4] = Inhibition of alpha-mannosidase in jack bean after 30 mins by spectrophotometric analysis; design: species or system Canavalia ensiformis
[5] = Inhibition of beta-mannosidase in Roman snail after 30 mins by spectrophotometric analysis; design: species or system Helix pomatia

Alpha-galactosidase, sequence (Q42656 whole entry): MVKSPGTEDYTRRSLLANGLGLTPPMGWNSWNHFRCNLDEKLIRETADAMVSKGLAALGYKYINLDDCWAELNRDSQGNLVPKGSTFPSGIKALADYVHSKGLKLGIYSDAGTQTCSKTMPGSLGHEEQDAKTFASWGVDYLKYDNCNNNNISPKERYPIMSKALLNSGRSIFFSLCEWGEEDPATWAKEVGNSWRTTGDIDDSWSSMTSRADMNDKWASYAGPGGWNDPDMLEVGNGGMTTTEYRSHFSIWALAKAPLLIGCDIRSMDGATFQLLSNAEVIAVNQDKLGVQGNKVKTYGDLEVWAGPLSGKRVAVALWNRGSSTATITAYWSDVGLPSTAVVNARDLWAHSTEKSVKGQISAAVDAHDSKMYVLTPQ

Row | Structure (SMILES) | IC50 (Alpha-galactosidase) [µM] | IC50 [1] [µM] | IC50 [2] [µM] | IC50 [3] [µM] | IC50 (Beta-galactosidase) [µM] | IC50 [4] [mM] | IC50 [5] [mM]
1 | N=C(NCc1ccccc1)N1C[C@H](O)[C@@H](O)[C@H](O)[C@H]1CO | > 1000 | 27 | 4.3 | > 1000 | 5.1 | > 1 | 
2 | CCCCCCCCNC(=N)N1C[C@H](O)[C@@H](O)[C@H](O)[C@H]1CO | 23 | 67 | 25 | 31 | 2.6 | 0.055 | 
3 | CCCCCCN1C[C@H](O)[C@@H](O)[C@H](O)[C@H]1CO | 251 | 6 | 59 | 134 | > 1000 | > 1 | > 1
4 | CCCCNC(=N)N1C[C@H](O)[C@@H](O)[C@H](O)[C@H]1CO | 18 | > 1000 | 41 | 20 | 15 | 0.113 | 0.408
5 | N=C(NCCOCCO)N1C[C@H](O)[C@@H](O)[C@H](O)[C@H]1CO | > 1000 | 172 | > 1000 | 251 | > 1000 | > 1 | 
6 | N=C(NCCO)N1C[C@H](O)[C@@H](O)[C@H](O)[C@H]1CO | 540 | 645 | 457 | 133 | > 1000 | > 1 | 
7 | N=C(NCCCc1ccccc1)N1C[C@H](O)[C@@H](O)[C@H](O)[C@H]1CO | > 1000 | 33 | 67 | > 1000 | 6.2 | > 1 | 
8 | N=C(NCCCOCC12CC3CC(CC(C3)C1)C2)N1C[C@H](O)[C@@H](O)[C@H](O)[C@H]1CO | > 1000 | 22 | 489 | 131 | 5.4 | > 1 | 
9 | OC[C@H]1NC[C@H](O)[C@@H](O)[C@@H]1O [DUVOGLUSTAT] |  | 33 | 312 | 167 |  | > 1 | > 1
10 | CCCCNC(=O)N1C[C@H](O)[C@@H](O)[C@H](O)[C@H]1CO | > 1000 | > 1000 | > 1000 | > 1000 | 27 | > 1 | > 1
